In brackets after ≈: the same amount, converted by molar mass. Like-named read-outs stand apart in the source and are kept apart here. Starred links: 1 amine or outer side, 2 acyl side, 3 side chain; linkers in the order of their positions; H or OH if unused. Non-standard residues stand in square brackets, D forms with d. Residues, ends and D or L forms follow the SMILES beside them. Groups on a side chain read outwards from the residue. *: point of attachment. X1 = CCCCCCCCCCCCCCCC(=O)N[C@@H](CCC(=O)N[C@@H](CCC(=O)N[C@@H](CCC(=O)NCCCOCCOCCOCCCNC(=O)CCC(=O)NCCCOCCOCCOCCCNC(=O)CCC(=O)NCCCOCCOCCOCCCN*)C(=O)O)C(=O)O)C(=O)O; Suc = O=C(CCC(=O)[*:2])[*:1]; Aib = CC(C)(N)C(=O)O
Experiments:
[1] = target: T1, RXFP1 (Homo sapiens, UniProt Q9HBX9); test: OVCAR5 cAMP assay (HTRF); assay type: cell-based; details: for EC50: OVCAR 5 cells expressing endogenous RXFP1, cAMP readout; for Emax: OVCAR 5 cells, maximal cAMP relative to H2-relaxin
T1 construct: OVCAR5 cells expressing endogenous RXFP1; endogenous in cells; host or cells: OVCAR5
T1 sequence (Q9HBX9 1-757): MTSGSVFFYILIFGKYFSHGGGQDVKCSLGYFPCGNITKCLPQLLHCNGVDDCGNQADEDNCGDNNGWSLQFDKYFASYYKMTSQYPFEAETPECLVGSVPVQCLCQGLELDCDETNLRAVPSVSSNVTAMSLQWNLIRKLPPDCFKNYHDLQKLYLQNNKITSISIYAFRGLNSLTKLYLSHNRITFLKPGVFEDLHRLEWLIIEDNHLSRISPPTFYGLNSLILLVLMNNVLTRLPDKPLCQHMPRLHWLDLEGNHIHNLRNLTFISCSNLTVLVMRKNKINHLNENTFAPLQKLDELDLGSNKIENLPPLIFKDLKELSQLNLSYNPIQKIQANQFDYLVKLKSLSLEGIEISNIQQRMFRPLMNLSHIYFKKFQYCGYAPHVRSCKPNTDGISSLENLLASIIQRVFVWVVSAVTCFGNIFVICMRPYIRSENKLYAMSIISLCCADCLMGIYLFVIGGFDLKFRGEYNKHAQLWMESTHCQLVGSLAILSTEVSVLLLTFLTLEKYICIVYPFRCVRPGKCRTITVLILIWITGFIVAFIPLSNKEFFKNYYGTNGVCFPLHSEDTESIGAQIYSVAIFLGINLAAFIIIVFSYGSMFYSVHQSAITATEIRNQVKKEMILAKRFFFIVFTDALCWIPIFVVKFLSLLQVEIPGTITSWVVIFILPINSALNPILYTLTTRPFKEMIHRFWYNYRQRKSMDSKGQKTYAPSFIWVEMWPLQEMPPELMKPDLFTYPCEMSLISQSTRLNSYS
Procedure, shortened: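 Endogenous RXFP1 in OVCAR5 cells, pretreated 40 min at 37° C with 1 mM IBMX, then exposed to increasing peptide concentrations in serum-free medium for 30 min at 37° C. cAMP read by HTRF; EC50 by variable-slope sigmoidal fit, Emax as % of H2-relaxin maximal cAMP in same run.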

[2] = Solubility testing in buffer; assay type: physicochemical; details: target solubility 10.0 mg/ml
Procedure: Prior to the testing of solubility of a peptide batch, its purity (HPLC-UV) was determined.
Acetate Buffer 50 mM pH4.5: 0.75 g C2H3C02Na,3H2O (Sigma S7545)+0.35 ml CH3CO2H 100% solution dissolved in Millipore water, adjusted to pH with diluted (1:1) CH3CO2H and diluted to 250 ml with Millipore water.
In a 4 ml Ependorph vial, an accurately weighed sample of compound was diluted in study media to obtain target concentration of 2, 6 or 10 mg/ml of pure compound. The sample vials were shacked (rock 'roll shaker) for ˜19 h. 300 μL aliquots were filtered through a Millipore “Solvinert” plate (0.45 μm-PTFE hydrophilic).
pH was measured with a micro electrode
Waters Acquity UPLC System with DAD detector
Column: Waters Peptide Column CSH C18 (130 Å; 1.7 μm; 50*2.1 mm)
Column temperature: 60° C.
Full loop (about 5 μL)—overfill factor 5
Weak et Strong wash: H2O/ACN (75/25; V/V); Seal wash: H2O/IsOH (95/5; V/V). Mobile phase:
Solvent A: 0.05% TFA in H2O; Solvent B: 0.035% TFA in CH3CN
Gradient: from 0 to 12 min B=2% to 60%, from 12 to 14 min B=60% to 100%. Column washing 100% B 1 min, column equilibration 2% B 2.5 min.
UV detector: wavelength: 220 nm.

[3] = in vivo; set-up: species or system Sprague Dawley rats; details: Sprague Dawley, rat
Procedure: Prior to the testing of a peptide batch, its purity (HPLC-UV) was determined. Dose was corrected for presence of salts, solvent and purity. Bioanalytical screening method for quantification of peptides in rat: Sprague Dawley rats were dosed with study peptide at a dose of 1 mg/kg intravenously (i.v.) or 3 mg/kg subcutaneously (s.c.) as a solution in PBS (0.2 mg/ml and 0.6 mg/ml respectively). Blood samples were collected after: 0.083, 0.25, 0.5, 1, 2, 4, 8, 24, 48 and 72 h (i.v. route) and 0.25, 0.5, 1, 2, 4, 6, 8, 10, 24, 48 and 72 h (s.c route) post application. Plasma samples were analyzed after protein precipitation via liquid chromatography mass spectrometry (LC/MS). PK parameters and half-life were calculated using Phoenix 64 (WinNonlin 6.4)-Pharsight (Certara™) (non-compartment model). Values below the limit of quantification (BLQ) were replaced by zero for subsequent calculations and PK analysis. T½: in-vivo half-life, time required for test compound plasma concentration to be divided by two during the PK experiment. C0: Extrapolated test compound plasma concentration at t=0 time point (i.v. route). Cmax: maximal test compound plasma concentration at the indicated time point (s.c. route). Tmax: Time point where Cmax was attained. F %: s.c. vs i.v. bioavailability, dose-corrected area under curve (AUC) s.c. route divided by AUC i.v.

[4] = acetate buffer 50 mM pH 4.5, read-out: Solubility Acetate buffer pH 4.5
[5] = phosphate buffer 50 mM pH 7.4, read-out: Solubility phosphate buffer pH 7.4

Question: What does the source list for `CCCCCCCCCCCCCCCC(=O)N[C@@H](CCC(=O)N[C@@H](CCC(=O)N[C@@H](CCC(=O)NCCCOCCOCCOCCCNC(=O)CCC(=O)NCCCOCCOCCOCCCNC(=O)CCC(=O)NCCCOCCOCCOCCCNC(=O)CCC(=O)NCCCC[C@H](NC(=O)CNC(=O)[C@H](CCC(=O)O)NC(=O)C(C)(C)NC(=O)C(C)(C)NC(=O)[C@@H](NC(=O)[C@H](CCCCNC(C)=O)NC(=O)[C@H](C)NC(=O)[C@H](CCCNC(=N)N)NC(=O)[C@@H](NC(=O)[C@H](CCCCN)NC(=O)[C@H](CCC(=O)O)NC(=O)[C@H](CCCNC(=N)N)NC(=O)CNC(=O)[C@H](CCC(=O)O)NC(=O)[C@H](CC(C)C)NC(C)=O)C(C)C)[C@@H](C)CC)C(=O)N[C@@H](CO)C(=O)N[C@H](C(=O)N[C@@H](Cc1ccccc1)C(=O)NC(C)(C)C(=O)N[C@@H](CCCNC(=N)N)C(=O)N[C@@H](CCCNC(=N)N)C(=O)N[C@@H](C)C(=O)N[C@@H](CCCCNC(C)=O)C(N)=O)[C@@H](C)O)C(=O)O)C(=O)O)C(=O)O` [compound 72] (Ac-LEGREKVRAK(Ac)I[Aib][Aib]EGK([Suc-X1])STF[Aib]RRAK(Ac)-NH2)?
Answer: EC50 [1]: 0.56 nM; Emax [1]: 91%; solubility [2, 4]: 8250 µg/mL (≈ 1890 µM); solubility [2, 5]: 8720 µg/mL (≈ 1990 µM)

Question: For `CCCCCCCCCCCCCCCC(=O)N[C@@H](CCC(=O)N[C@@H](CCC(=O)N[C@@H](CCC(=O)NCCCOCCOCCOCCCNC(=O)CCC(=O)NCCCOCCOCCOCCCNC(=O)CCC(=O)NCCCOCCOCCOCCCNC(=O)CCC(=O)NCCCC[C@H](NC(=O)CNC(=O)[C@H](CCC(=O)O)NC(=O)C(C)(C)NC(=O)C(C)(C)NC(=O)[C@@H](NC(=O)[C@H](CCCCNC(C)=O)NC(=O)[C@H](C)NC(=O)[C@H](CCCNC(=N)N)NC(=O)[C@@H](NC(=O)[C@H](CCCNC(=N)N)NC(=O)[C@H](CCC(=O)O)NC(=O)[C@H](CCCNC(=N)N)NC(=O)CNC(=O)[C@H](CCC(=O)O)NC(=O)[C@H](CC(C)C)NC(C)=O)C(C)C)[C@@H](C)CC)C(=O)N[C@@H](CO)C(=O)N[C@H](C(=O)N[C@@H](Cc1c[nH]c2ccccc12)C(=O)N[C@@H](CO)C(=O)NC(C)(C)C(=O)N[C@@H](CCCNC(=N)N)C(=O)N[C@@H](CCCNC(=N)N)C(=O)N[C@@H](CCCCNC(C)=O)C(N)=O)[C@@H](C)O)C(=O)O)C(=O)O)C(=O)O` [compound 55] (Ac-LEGRERVRAK(Ac)I[Aib][Aib]EGK([Suc-X1])STWS[Aib]RRK(Ac)-NH2), which EC50 [1] is on record?
Answer: 0.18 nM

Question: What about the Emax [1] of the same molecule?
Answer: 93%

Question: What about the solubility [2, 4] of the same molecule?
Answer: 9260 µg/mL (≈ 2080 µM)

Question: And the solubility [2, 5]?
Answer: 8840 µg/mL (≈ 1980 µM)

Question: And the C0 ([3]; iv, 1 mg/kg)?
Answer: 4.91 µM

Question: And the half-life ([3]; iv, 1 mg/kg)?
Answer: 293 min

Question: And the bioavailability ([3]; sc)?
Answer: 65%

Question: And the Cmax ([3]; sc, 3 mg/kg)?
Answer: 2070 nM

Question: What about the Tmax ([3]; sc, 3 mg/kg) of the same molecule?
Answer: 6 h

Question: For `CCCCCCCCCCCCCCCC(=O)N[C@@H](CCC(=O)N[C@@H](CCC(=O)N[C@@H](CCC(=O)NCCCOCCOCCOCCCNC(=O)CCC(=O)NCCCOCCOCCOCCCNC(=O)CCC(=O)NCCCOCCOCCOCCCNC(=O)CCC(=O)NCCCC[C@H](NC(=O)CNC(=O)[C@H](CCC(=O)O)NC(=O)C(C)(C)NC(=O)C(C)(C)NC(=O)[C@@H](NC(=O)[C@H](CCCCNC(C)=O)NC(=O)[C@H](C)NC(=O)[C@H](CCCNC(=N)N)NC(=O)[C@@H](NC(=O)[C@H](CCCCN)NC(=O)[C@H](CCC(=O)O)NC(=O)[C@H](CCCNC(=N)N)NC(=O)CNC(=O)[C@H](CCC(=O)O)NC(=O)[C@H](CC(C)C)NC(C)=O)C(C)C)[C@@H](C)CC)C(=O)N[C@@H](CO)C(=O)N[C@H](C(=O)N[C@@H](Cc1c[nH]c2ccccc12)C(=O)N[C@H](CO)C(=O)N[C@@H](CCCCN)C(=O)N[C@@H](CCCNC(=N)N)C(=O)N[C@@H](C)C(=O)N[C@@H](CCCCNC(C)=O)C(N)=O)[C@@H](C)O)C(=O)O)C(=O)O)C(=O)O` [compound 44] (Ac-LEGREKVRAK(Ac)I[Aib][Aib]EGK([Suc-X1])STW[dS]KRAK(Ac)-NH2), which EC50 [1] is on record?
Answer: 2.2 nM

Question: What about the Emax [1] of the same molecule?
Answer: 97%

Question: What about the solubility [2, 4] of the same molecule?
Answer: 11100 µg/mL (≈ 2520 µM)

Question: What about the solubility [2, 5] of the same molecule?
Answer: 10700 µg/mL (≈ 2440 µM)

Reference: US11725036B2, “Modified lipidated relaxin B chain peptides and their therapeutic use” (Sanofi, priority 2018, dated 2023)
